Literature values in patent US5939423A, “Treatment of hepatitis B infection with thymosin alpha 1 and famciclovir” (priority 1997, dated 1999).
Ends that are not written are not given here.

How the values were obtained:
[1] = single and repeat doses up to 1000 mg three times daily for six days
[2] = tested on: HBV; conditions: preliminary data; up to 500 mg three times a day for 16 weeks
[3] = tested on: duck hepatitis B virus; conditions: for maintenance of suppression of HBV DNA and DNA polymerase during treatment: 21 days of treatment; for maintenance of suppression of HBV DNA and DNA polymerase during treatment / DNA polymerase level / HBV DNA level: oral twice a day, penciclovir 20 and 100 mg/kg, famciclovir 5 and 25 mg/kg; for inhibition of duck hepatitis B viral replication: Peking duck; for HBV DNA and DNA polymerase levels after the post-dosing suppression: later than two days after dosing had stopped; for DNA polymerase level / HBV DNA level: within two days of start
[4] = more than 3000 patients
[5] = not given; remark: listed apart in the source
[6] = tested on: HBV; conditions: named patients
[7] = tested on: HBV; conditions: in vivo
[8] = tested on: HBV; conditions: 10 day course, 250 mg or 500 mg tid
[9] = tested on: zoster
[10] = tested on: herpes simplex
[11] = tested on: HBV
[12] = tested on: HBV; remark: listed apart in the source
[13] = tested on: HBV infection; conditions: treatment of HBV infection
[14] = tested on: HBV; conditions: 1.45 to 1.75 mg (adults) per twice-weekly injection
[15] = tested on: woodchuck hepatitis virus (WHV)
[16] = tested on: normal human lymphocytes
[17] = tested on: T cells
[18] = tested on: HBV; remark: listed apart in the source
[19] = tested on: T4 (helper/inducer)cells; conditions: by activation of the T4 (helper/inducer) cells
[20] = tested on: anti-HBs; conditions: previously non-reactive hemodialysis patients
[21] = in vivo
[22] = tested on: HBV; remark: listed apart in the source
[23] = during the 1 yr study or post study follow up, p<0.11 vs placebo
[24] = n = 49, 1.6 mg s.c. 2×/week, 6 months, p value 0.084 vs placebo
[25] = n = 49, 1.6 mg s.c. 2×/week, 6 months, p value ns
[26] = 12 patients received TF5 or Tα1, p<0.004 vs placebo, Fisher's exact test

In the case of CC(=O)OCC(CCn1cnc2cnc(N)nc21)COC(C)=O [famciclovir, diacetylester of 6-deoxy penciclovir], the “drug-related adverse effects on clinical laboratory values, blood pressure, heart rates or ECG measurements” value [1] is given as “no evidence of drug-related adverse effects”, the “reduction in HBV DNA and ALT levels” value [2] is given as “significant reduction” and the “maintenance of suppression of HBV DNA and DNA polymerase during treatment” value [3] is given as “maintained this suppression during the 21 days”. For the same compound, the “inhibition of duck hepatitis B viral replication” value [3] was “clearly inhibit”, the “suppression of viral replication after dosing had stopped” value [3] was “remained suppressed for at least two days” and the “HBV DNA and DNA polymerase levels after the post-dosing suppression” value [3] was “returned to pre-treatment levels”. The DNA polymerase level [3] was “undetectable”, the “HBV DNA level” value [3] was “undetectable” and the conversion to penciclovir (removal of one ester group) was “partly in the intestinal wall”. For the same compound, the “completion of conversion to penciclovir” value (removal of remaining ester group, oxidation at the 6-position) was “completed in the liver”, the “most common adverse experiences” value [4] was “headache, nausea and diarrhea” and the absorption ([5]; oral, volunteers) was “well absorbed”. For the same compound, the “efficacy in patients with HBV reinfection following liver transplantation” value [6] was “shown efficacy”, the safety profile [7] was “good safety profile” and the “suppressing HBV replication” value [7] was “effective in suppressing HBV replication”. For the same compound, the “fall in HBV DNA levels” value ([8]; in 6 of 11 evaluable patients) was “greater than 90%” and the “evaluable patients with greater than 90% fall in HBV DNA levels” value ([8]; of 11 evaluable patients) was 6.
For Nc1ccn([C@@H]2CS[C@H](CO)O2)c(=O)n1 [lamivudine], the safety profile [7] is given as “good safety profile” and the “suppressing HBV replication” value [7] is given as “effective in suppressing HBV replication”.
For Nc1nc2c(ncn2CCC(CO)CO)c(=O)[nH]1 [penciclovir], the “maintenance of suppression of HBV DNA and DNA polymerase during treatment” value [3] is listed as “maintained this suppression during the 21 days”, the “inhibition of duck hepatitis B viral replication” value [3] is listed as “clearly inhibit” and the “suppression of viral replication after dosing had stopped” value [3] is listed as “remained suppressed for at least two days”. The “HBV DNA and DNA polymerase levels after the post-dosing suppression” value [3] was “returned to pre-treatment levels”, the DNA polymerase level [3] was “undetectable” and the “HBV DNA level” value [3] was “undetectable”. The “efficacy against zoster virus” value [9] was “proven efficacy”, the “efficacy against herpes simplex virus” value [10] was “proven efficacy” and the “reduction in HBV DNA by 6 day” value ([11]; 1 microgram/ml, by 6 day) was 50%. For the same compound, the “reduction in HBV DNA by day 9” value ([11]; 1 microgram/ml, by day 9) was 90%, the “concentration dependence of HBV DNA reduction” value ([11]; 2.2.15 hepatoma cells) was “concentration dependent” and the “inhibition of HBV in human cells” value ([11]; 2.2.15 hepatoma cells) was “potent inhibitor”. The “Cmax (penciclovir)” value ([5]; oral penciclovir alone, 5 mg/kg dose) was “approximately 0.14 microgram/ml”.
In the case of “Tα1: 28 amino acid peptide with a molecular weight of 3108, initially isolated from Thymus Fraction 5, sequenced and chemically synthesized (SDAAVDTSSEITTKDLKEKKEVVEEAEN; ends and bridges not checked; UniProt P06454 2-29, looked up)”, the “sustained loss of HBV DNA with negative HBeAg” value [12, 23] is given as 25%, the “sustained loss of HBV DNA with negative HBeAg, number of patients” value [12, 23] is given as 12 and the “CR (%) (complete response)” value [12, 24] is given as 14%. For the same compound, the “CR (complete response), number of patients” value [12, 24] was 7, the “DR (%) (delayed response)” value [12, 25] was 10% and the “DR (delayed response), number of patients” value [12, 25] was 5. The “IR (%) (incomplete response)” value [12, 25] was 0%, the “IR (incomplete response), number of patients” value [12, 25] was 0 and the immune responsiveness [13] was “enhances immune responsiveness”. The specific lymphocyte parameters [13] was “augments specific lymphocyte parameters to significantly higher levels”, the “safety and effectiveness in clearing HBV DNA from the blood” value [14] was “safe and effective” and the “change of WHV DNA replication intermediates from pretreatment levels” value ([15]; liver biopsy, the other 2 animals, end of treatment) was “only a small change”. For the same compound, the “treated animals with undetectable WHV DNA levels” value ([15]; of 6 animals, 10 μg/Kg s.c. twice weekly, 28 weeks) was 4, the “depression of WHV DNA levels” value ([15]; remaining 2 animals, 10 μg/Kg s.c. twice weekly, 28 weeks) was 100 fold and the “lymphocyte IL2 receptor expression” value [16] was “increase”. The “interferon-alpha, interferon-gamma, and IL2 and IL3 production” value ([16]; normal human lymphocytes) was “promote”, the “modulating the maturation of T cells” value [17] was “activity similar to TF5” and the “number of patients who cleared serum HBV DNA” value [18, 26] was “Nine”. The “patients who cleared serum HBV DNA” value [18, 26] was 75%, the “peripheral blood lymphocyte, CD3 and CD4 counts, and in vitro production of interferon-gamma” value ([18]; associated with response, over initial values) was “significant improvements” and the “responders with sustained remission with normal ALT levels and negative serum HBV DNA (using PCR) and HBeAg” value ([18]; of the responders) was “About 78%”. The side effects ([18]; twice weekly for six months) was “No side effects were observed”, the serum aminotransferase levels ([18]; twice weekly for six months, conclusion of the study (1 year)) was “improved significantly” and the “allogenic and autologous human mixed lymphocyte reactions” value [19] was “enhances”. For the same compound, the “in vivo production of anti-HBs following Heptavax-B vaccination” value [20] was “enhance” and the “local or systemic side effects” value [21] was “no local or systemic side effects have been observed”.
In the case of interferon-alpha, the “clear HBeAg” value ([22]; Asian patients) is listed as 15-20%, the “sustained clearance of hepatitis B e antigen (HBeAg)” value ([22]; North America and European patients) is listed as 30-40% and the “clear HBsAg” value ([22]; of the Asian patients who clear HBeAg) is listed as “approximately 10%”. The “ultimately cleared hepatitis B surface antigen (HBsAg)” value ([22]; of the North America and European patients with HBeAg clearance) was 25-65%.
